In data set [1] the target is KRAS^G12D binding to c-Raf (Homo sapiens (Human), UniProt P01116, G12D). Kind of data set: SOS1-mediated binding of KRAS^G12D to effector protein c-Raf (TR-FRET). The format is biochemical.
Another data set relates to p-ERK in GP2D cells. The data set can be described thus: Assay of p-ERK inhibition in GP2D cells (HTRF). The format is cell-based. The conditions noted are these: Homo sapiens, 1 hour incubation. The method, then: 2. Assay Process • 1) GP2D cells were inoculated in a transparent 96-well cell culture plate, and each well contained 80 μL of cell suspension and 8000 cells. The cell plate was inoculated in a carbon dioxide incubator at 37° C. overnight; • 2) 2 μL of the compound was weighed and added to 78 μL of the cell medium. After the mixture was mixed thoroughly, 20 μL of the solution of compound was weighed and added to the corresponding well of the cell plate. The cell plate was placed back to the carbon dioxide incubator and incubated for another 1 hour; • 3) After completion of the incubation, the cell supernatant was discarded. 50 μL of 1× cell lysate was added to each well. The mixture was incubated with shaking at room temperature for 30 minutes; • 4) Phospho-ERK1/2 Eu Cryptate antibody and Phospho-ERK1/2 d2 antibody were diluted 20-fold with detection buffer; • 5) 16 μL of cell lysate supernatant was weighed and added into each well of a new 384 white microwell plate, and then 2 μL of the diluted solution of Phospho-ERK1/2 Eu Cryptate antibody and 2 μL of the diluted solution of Phospho-ERK1/2 d2 antibody dilution were added. The mixture was incubated at room temperature for at least 4 hours; • 6) After completion of the incubation, HTRF was read with multi-label analyzer: excitation: 320 nm, emission: 615 nm, 665 nm; • 7). IC50 of the compounds to be assayed was calculated.

In the next data set the target is KRAS^G12D (Homo sapiens (Human), UniProt P01116, G12D). The data set can be described thus: Assay of the activity of inhibiting KRAS^G12D (TR-FRET, SOS/GTP nucleotide exchange). The format is biochemical.
The next data set concerns p-ERK in AGS cells. The data set can be described thus: Assay of p-ERK inhibition in AGS cells (HTRF). The conditions noted are these: Homo sapiens, 3 hours incubation. In kind it is cell-based. As for the experimental part:
1) AGS cells were inoculated in a transparent 96-well cell culture plate, and each well contained 80 μL of cell suspension and 10000 cells. The cell plate was inoculated in a carbon dioxide incubator at 37° C. overnight; • 2) After completion of the incubation, the cell supernatant was discarded. 80 μL of medium containing 0.02% serum was added to each well. The cell plate was incubated in a carbon dioxide incubator at 37° C. overnight; • 3) 2 μL of the compound was weighed and added to 78 μL of the cell medium. After the mixture was mixed thoroughly, 20 μL of the solution of compound was weighed and added to the corresponding well of the cell plate. The cell plate was placed back to the carbon dioxide incubator and incubated for another 3 hours; • 4) After completion of the incubation, the cell supernatant was discarded. 50 μL of 1× cell lysate was added to each well. The mixture was incubated with shaking at room temperature for 30 minutes; • 5) Phospho-ERK1/2 Eu Cryptate antibody and Phospho-ERK1/2 d2 antibody were diluted 20-fold with detection buffer; • 6) 16 μL of cell lysate supernatant was weighed and added into each well of a new 384 white microwell plate, and then 2 μL of the diluted solution of Phospho-ERK1/2 Eu Cryptate antibody and 2 μL of the diluted solution of Phospho-ERK1/2 d2 antibody dilution were added. The mixture was incubated at room temperature for at least 4 hours; • 7) After completion of the incubation, HTRF was read with multi-label analyzer: excitation: 320 nm, emission: 615 nm, 665 nm; • 8). IC50 of the compounds to be assayed was calculated.

The test system of data set [2] is KRAS G12D mutated GP2D cells. Kind of data set: Assay of inhibition of GP2D cell proliferation (CellTiter-Glo 3D). The format is cell-based. The conditions noted are these: Homo sapiens, 120 h, 5 days. The method, then:
The aim of this assay was to verify the inhibitory effect of the compounds of the present disclosure on the proliferation of KRAS G12D mutated GP2D human […] cancer cells.
Cell line GP2D, DMEM medium, and penicillin/streptomycin antibiotics were purchased from Wisent; fetal bovine serum was purchased from Biosera; and CellTiter-Glo® 3D Cell Viability Assay (3D cell viability chemiluminescence assay reagent) reagent was purchased from Promega.
GP2D cells were seeded in a 96-well U-bottom cell culture plate. Each well contained 80 μL of cell suspension containing 2000 GP2D cells. The cell plate was incubated overnight in a CO2 incubator. The compound to be assayed was serially diluted 5-fold with a pipette to the 8th concentration, i.e. diluted from 200 μM to 2.56 nM, to set up a double replicate well assay. 78 μL of medium was added to the middle plate, and then 2 μL per well of the gradient dilution compound was transferred to the middle plate according to the corresponding position. The mixture was mixed well and 20 μL per well was transferred to the cell plate. The concentration of compound transferred to the cell plate ranged from 1 μM to 0.0128 nM. The cell plate was incubated in a CO2 incubator for 5 days. At the end of the incubation of the plate with compounds added, 100 μL of cell viability chemiluminescence detection reagent per well was added to the plate and the plate was incubated at room temperature for 10 minutes to stabilize the luminescence signal. Reading was performed using a multi-label analyzer.
The raw data were converted into an inhibition rate by using an equation (Sample−Min)/(Max−Min)*100%. IC50 value can be obtained by curve fitting with four parameters (“log(inhibitor) vs. response—Variable slope” model in GraphPad Prism).

Data set [3] can be described thus: Pharmacokinetic evaluation of compounds in mice. The conditions noted are these: CD-1 male mice, PO, 5.54 mg/kg. In kind it is in vivo, CD-1 mice. As for the experimental part:
Purpose of assay: To assay the pharmacokinetic data of the compounds in CD-1 mice in vivo.
Compounds were mixed with vehicle 5% DMSO/95% (10% HP-β-CD aqueous solution), and the mixture was vortexed and sonicated to give 0.2 mg/mL-0.3 mg/mL clear solutions. CD-1 male mice aged 7 to 10 weeks were selected, and the candidate compound solution was administered intravenously. Whole blood was collected for a certain period of time to prepare the plasma. The drug concentration was analyzed by LC-MS/MS method and pharmacokinetic parameters were calculated by Phoenix WinNonlin software (Pharsight, USA).
Compounds were mixed with vehicle 5% DMSO/95% (10% HP-β-CD in water), and the mixture was vortexed and sonicated to give 1.6 mg/mL to 4.0 mg/mL clear solutions. CD-1 male mice aged 7 to 10 weeks were selected, and the candidate compound solution was orally administered. Whole blood was collected for a certain period of time to prepare plasma. The drug concentration was analyzed by LC-MS/MS method, and pharmacokinetic parameters were calculated by Phoenix WinNonlin software (Pharsight, USA).

Counter-ions that a name gives are not always drawn.

Chain of KRAS^G12D (P01116-2 other isoform, or with tags, fused parts or gaps G12D): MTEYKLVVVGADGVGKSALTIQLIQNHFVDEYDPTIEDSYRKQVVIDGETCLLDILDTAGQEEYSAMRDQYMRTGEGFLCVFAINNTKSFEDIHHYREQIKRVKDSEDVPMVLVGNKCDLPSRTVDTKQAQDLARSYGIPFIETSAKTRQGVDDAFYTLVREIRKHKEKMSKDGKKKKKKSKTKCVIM
Chain of KRAS^G12D binding to c-Raf (P01116-2 other isoform, or with tags, fused parts or gaps G12D): as above

Regarding `C#Cc1c(F)ccc2cc(N)cc(-c3c(Cl)cc4c(N5CC6CCC(C5)N6)nc(OC[C@@]56CCCN5C[C@H](F)C6)nc4c3F)c12` (single isomer, unassigned) [Compound 016B], the IC50 was found to be 6.23 nM in data set [1] and 0.67 nM with p-ERK in GP2D cells.
For `Oc1cc(-c2c(Cl)cc3c(N4CC5CCC(C4)N5)nc(OC[C@@]45CCCN4C[C@H](F)C5)nc3c2F)c2ccccc2c1` [Compound 001 formate], the results for the IC50 at KRAS^G12D and in the data set on p-ERK in AGS cells were 9.2 nM and 292 nM, respectively.
Compound `Oc1cc(-c2c(F)cc3c(N4CC5CCC(C4)N5)nc(OC[C@@]45CCCN4C[C@H](F)C5)nc3c2Cl)c2ccccc2c1` [Compound 008 hydrochloride] came in with an IC50 against KRAS^G12D of 1.3 nM.
As for `Nc1nc2c(-c3c(F)cc4c(N5CC6CCC(C5)N6)nc(OC[C@@]56CCCN5C[C@H](F)C6)nc4c3Cl)ccc(F)c2s1` [Compound 007 hydrochloride], on KRAS^G12D, it took 0.4 nM to reach half-maximal inhibition (IC50).
As to `CCc1c(F)ccc2cc(O)cc(-c3ccc4c(N5CC6CCC(C5)N6)nc(OC[C@@]56CCCN5C[C@H](F)C6)nc4c3F)c12` [Compound 006 hydrochloride], the IC50 was found to be 2.04 nM in data set [2] and 67.1 nM in the data set on p-ERK in AGS cells.
With `Oc1cc(-c2ccc3c(N4CC5CCC(C4)N5)nc(OC[C@@]45CCCN4C[C@H](F)C5)nc3c2F)c2ccccc2c1` [Compound 005 hydrochloride], the results for the IC50 against KRAS^G12D and in the data set on p-ERK in AGS cells were 0.1 nM and 147 nM, respectively.
Turning to `C#Cc1c(F)ccc2cc(O)cc(-c3ccc4c(N5CC6CCC(C5)N6)nc(OC[C@@]56CCCN5C[C@H](F)C6)nc4c3F)c12` [Compound 010 hydrochloride], in data set [3] (AUCu = AUC0-inf *Unbound PPB (Mouse)), the AUCu turned out to be 0.0025 µM·h. In data set [3] (mouse, plasma), the AUC(0-inf) turned out to be 0.125 µM·h, the Cmax came out at 54 nM, the bioavailability stood at 5.1% and the half-life is 1.6 h. Also, it took 3.6 nM to reach half-maximal inhibition in data set [2] (IC50). This compound also had an IC50 in the data set on p-ERK in GP2D cells of 0.055 nM.
Consider `Cc1cc(N)nc(-c2ccc3c(N4CC5CCC(C4)N5)nc(OC[C@@]45CCCN4C[C@H](F)C5)nc3c2F)c1C(F)(F)F` [Compound 019 hydrochloride], for which the IC50 in the data set on p-ERK in GP2D cells stood at 21.4 nM.
On the same count and under the same terms, the same measure for `Cc1cc(N)nc(-c2c(Cl)cc3c(N4CC5CCC(C4)N5)nc(OC[C@@]45CCCN4C[C@H](F)C5)nc3c2F)c1C(F)(F)F` [Compound 018 trifluoroacetate]: 1.6 nM; for `Nc1cc(-c2ccc3c(N4CC5CCC(C4)N5)nc(OC[C@@]45CCCN4C[C@H](F)C5)nc3c2F)c2c(F)c(F)ccc2c1` [Compound 013 hydrochloride]: 0.88 nM.
Turning to `Oc1cc(-c2ccc3c(N4CC5CCC(C4)N5)nc(OC[C@@]45CCCN4C[C@H](F)C5)nc3c2F)c2c(F)c(F)ccc2c1` [Compound 011 hydrochloride], the concentration for half-maximal inhibition (IC50) in data set [2] was 6.2 nM; in the data set on p-ERK in GP2D cells, 0.016 nM.
For the compound `Oc1cc(-c2c(Cl)cc3c(N4CC5CCC(C4)N5)nc(OC[C@@]45CCCN4C[C@H](F)C5)nc3c2F)c2ccccc2c1` (single isomer, unassigned) [Compound 027 hydrochloride], the IC50 against KRAS^G12D was 38.6 nM.
`N#Cc1c(N)sc2c(F)ccc(-c3c(Cl)cc4c(N5CC6CCC(C5)N6)nc(OC[C@@]56CCCN5C[C@H](F)C6)nc4c3F)c12` [Compound 012 formate]: the figures for the IC50 (in data set [2]; in the data set with p-ERK in GP2D cells) were 0.94 nM and 0.71 nM, respectively.
`Cc1cc(N)c(F)c(-c2c(Cl)cc3c(N4CC5CCC(C4)N5)nc(OC[C@@]45CCCN4C[C@H](F)C5)nc3c2F)c1C(F)(F)F` [Compound 022 formate]: inhibition in the data set with p-ERK in GP2D cells was half-maximal at 11.6 nM (IC50).
The compound `C#Cc1c(F)ccc2cc(N)cc(-c3c(F)cc4c(N5CC6C=CC(C5)N6)nc(OC[C@@]56CCCN5C[C@H](F)C6)nc4c3F)c12` [Compound 034] had an IC50 in data set [1] of 22.5 nM.
Consider `Nc1nc2c(-c3c(Cl)cc4c(N5CC6CCC(C5)N6)nc(OC[C@@]56CCCN5C[C@H](F)C6)nc4c3F)ccc(F)c2s1` [Compound 004], for which the IC50 is 0.5 nM on KRAS^G12D and 31.4 nM in the data set with p-ERK in AGS cells.
For `CCc1c(F)ccc2cc(O)cc(-c3ccc4c(N5CC6CCC(C5)N6)nc(OC[C@@]56CCCN5C[C@H](F)C6)nc4c3Cl)c12` [Compound 024 formate], the IC50 in data set [2] is 16 nM; in the data set on p-ERK in GP2D cells it was 4.4 nM.
In turn, `Nc1nc2c(-c3c(F)cc4c(N5CC6CCC(C5)N6)nc(OC[C@@]56CCCN5C[C@H](F)C6)nc4c3F)ccc(F)c2s1` [Compound 020 formate] registered an IC50 against KRAS^G12D of 6.6 nM.

Values taken from patent publication US20240174692A1, “PYRIMIDINE AROMATIC RING COMPOUNDS” (Medshine Discovery Inc., priority 2021, published 2024).
